This note sets out measurements from ChEMBL document CHEMBL1201862, “PubChem BioAssay data set” (2004).

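Cells were grown in 96-well plates and exposed to each compound for 48 hours at five concentrations; endpoints were interpolated linearly between bracketing concentrations, or set to the highest concentration if not reached. Abbreviation: GI50, concentration required for 50% inhibition of growth.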 Calls of active or inactive are those of the source. No stated cut-off is given here; in the data, active = GI50 up to about 1.1 µM and inactive = higher. A value given as a limit tells only on which side of the number the result lay.

Assay in all cases: NCI tumour cell line growth inhibition, 48 h
For assay [1], the system named is DLD-1.
Assay [2] has as its system DMS-114.
The subject of assay [3] is DMS-273.
For assay [4], the system named is LXFL 529.
Assay [5] concerns RXF 631.
Assay [6] has as its system SNB-78.
Assay [7] relates to HOP-18.
The test system of assay [8] is M19-MEL.
Assay [9] concerns XF498.

`COc1ccc2c(CCNC(C)=O)c(C(C)=O)[nH]c2c1`: the GI50 in [1], in assay [2], in [3], in assay [4], in [5] and in [6] was > 100 µM (inactive) each time.
As to `COC(=O)NC(=O)c1cn(CCCOC(=O)CCCCCCCCC(=O)OCCCn2cc(C(=O)NC(=O)OC)c(=O)[nH]c2=O)c(=O)[nH]c1=O`, the GI50 in assay [1], in assay [2], in assay [3], in assay [7], in assay [4] and in [8] was > 100 µM (inactive) each time. In addition, the GI50 in assay [5] is 50.9 µM (inactive); in assay [6], 78 µM (inactive); in assay [9] it was 19.3 µM (inactive).
In the case of `CCc1cc2c(c3[nH]ccc13)[C@@H](C)C[C@H]2C`, the GI50 was 16.4 µM (inactive) in [1]; 19.9 µM (inactive) in assay [2]; 18 µM (inactive) in assay [3]; 18.4 µM (inactive) in assay [7]; 18 µM (inactive) in assay [4]; 17.2 µM (inactive) in [8]. Further, the GI50 in assay [6] is 16.4 µM (inactive).
On to `O=C(O)c1ccccc1NS(=O)(=O)c1ccc([N+](=O)[O-])cc1`, for which the GI50 in assay [3], in [7], in [4], in assay [5], in assay [6] and in assay [9] was > 100 µM (inactive) each time.
As to `CCc1nc2cc(/N=N/c3c(O)ccc4ccccc34)ccc2[nH]1`, the GI50 in [1] was 15 µM (inactive); in [2] it was 17.3 µM (inactive); in assay [3], 17.1 µM (inactive); in assay [4], 11.5 µM (inactive); in assay [8] it was 18.9 µM (inactive); in [6], 15.5 µM (inactive).
Turning to `COC(=O)C1C(=O)O[C@@H](c2ccc(OC)cc2)C1C(=O)OC` (some centres undefined), the GI50 in assay [1], in [2], in [3], in assay [7], in [4] and in assay [8] was > 100 µM (inactive) in each case. Also, the GI50 in assay [9] was > 100 µM (inactive).
For the compound `CCOC(=O)N1C(=O)C2C3C=CC(C2C1=O)C1C2C(=O)N(C(=O)OCC)C(=O)C2C31` (centres undefined), the GI50 in [1] is > 87.3 µM (inactive); in [2], > 45.9 µM (inactive); in assay [3], > 43.7 µM (inactive); in assay [7], 43.4 µM (inactive); in assay [4], > 100 µM (inactive); in [8], > 74.5 µM (inactive). For the same compound, the GI50 in [5], in assay [6] and in [9] was > 100 µM (inactive) in each case.
Consider `CCN(CC)c1ccc(/N=C2/C=CC(=O)c3ncccc32)c(C)c1`, for which the GI50 in assay [1] is 3.42 µM (inactive); in [2], 3.9 µM (inactive); in assay [3] it was 8.3 µM (inactive); in assay [7] it was 10.5 µM (inactive); in assay [4], 2.48 µM (inactive); in [8] it was 10.4 µM (inactive). Besides, the GI50 in assay [5] was 14.2 µM (inactive); in assay [6], 9.55 µM (inactive); in assay [9], 2.02 µM (inactive).
As for `COc1cc(O)c2c(c1)C(=O)C=C(Cl)C2=O`, the GI50 in assay [1] was 30.3 µM (inactive); in [2], > 100 µM (inactive); in assay [3], > 100 µM (inactive); in assay [7] it was > 100 µM (inactive); in assay [4], > 100 µM (inactive); in assay [8], > 100 µM (inactive). Moreover, the GI50 in assay [5] is 51.4 µM (inactive); in assay [6], > 100 µM (inactive); in [9] it was 42.2 µM (inactive).
Turning to `CC1=C(C)C(=O)c2c(cc3ccc4ccccc4n23)C1=O`, the GI50 in assay [1], in assay [2], in assay [3], in [7], in assay [4] and in assay [8] was > 100 µM (inactive) throughout. Besides, the GI50 in assay [5] and in assay [6] was > 100 µM (inactive) each time.
Take `CN(C)CC1CCCC(CN(C)C)C1=NOC(=O)c1ccccc1` (centres undefined): the GI50 in assay [1] is > 100 µM (inactive); in assay [2], > 100 µM (inactive); in [3], > 100 µM (inactive); in assay [7], > 81.8 µM (inactive); in assay [4] it was > 100 µM (inactive); in assay [8] it was > 100 µM (inactive). Also, the GI50 in assay [6] and in [9] was > 100 µM (inactive) throughout.
For the compound `CCOC(=O)CCn1cnc(N)n1`, the GI50 in assay [1], in assay [2], in assay [3], in assay [7], in assay [4] and in [8] was > 100 µM (inactive) in each case. In addition, the GI50 in [5], in [6] and in [9] was > 100 µM (inactive) in each case.
As to `CN(C)CCNC(=O)c1cccc2c(Nc3ccc(S(=O)(=O)N=C(N)N)cc3)c3ccccc3nc12`, the GI50 is 69.8 µM (inactive) in assay [1]; 2.34 µM (inactive) in assay [2]; 6.59 µM (inactive) in assay [3]; 7.89 µM (inactive) in assay [4]; 18.7 µM (inactive) in assay [8]; 19.3 µM (inactive) in assay [9].
As to `CSc1nc2[nH]c(=O)c(C)nc2c(=O)[nH]1`, the GI50 in assay [1], in assay [2], in assay [3], in [4], in [8] and in [9] was > 100 µM (inactive) each time.
`C/C(CCN(C)C)=N/O`: the GI50 in assay [2] is 0.8 µM (active); in assay [7], 0.4 µM (active); in assay [4], 0.346 µM (active); in assay [8], 0.798 µM (active); in [6], 15.8 µM (inactive); in assay [9] it was 17.8 µM (inactive).
For the compound `CN(CCN(C)C(=O)CCOS(C)(=O)=O)C(=O)CCOS(C)(=O)=O`, the GI50 in [1] was > 100 µM (inactive); in assay [2], > 100 µM (inactive); in [3] it was 74 µM (inactive); in assay [7] it was > 100 µM (inactive); in assay [4], > 100 µM (inactive); in assay [6] it was > 100 µM (inactive). For the same compound, in assay [9], the GI50 is > 100 µM (inactive).
As for `COc1cccc2c1[C@H]1OC(=O)NC1CCCCC2` (some centres undefined), the GI50 in assay [1], in assay [2], in assay [3], in assay [7], in [4] and in [8] was > 100 µM (inactive) in each case. In assay [6], the GI50 was > 100 µM (inactive).
With `CN(C)CCNC(=O)c1cccc2ccc(-c3ccc(-c4ccccc4)cc3)nc12`, the GI50 in assay [1] was 2.45 µM (inactive); in assay [2] it was 1.7 µM (inactive); in assay [3], 1.69 µM (inactive); in assay [7], 12.9 µM (inactive); in assay [4], 1.83 µM (inactive); in assay [8], 1.81 µM (inactive). The GI50 in [5] was 1.76 µM (inactive); in [6], 14 µM (inactive).
Regarding `O=C1C=CC=CC2CC=C[C@@H](O)C12` (some centres undefined), the GI50 in [1] was 25.1 µM (inactive); in assay [2], 18.1 µM (inactive); in assay [3], 22.6 µM (inactive); in assay [4], 17.5 µM (inactive); in assay [8], 16.8 µM (inactive); in [6] it was 32.4 µM (inactive).
On to `O=C(Nc1c(O)[nH]c(=S)[nH]c1=O)c1ccccc1`, for which the GI50 in [1], in assay [2], in assay [7], in [4], in [8] and in [6] was > 100 µM (inactive) each time.
`CN(C(=O)C12C3C4C1C1C2C3C41C(O)C(C)(C)C)C(C)(C)C` (centres undefined): the GI50 in [1], in [2], in assay [3], in assay [4], in [8] and in assay [5] was > 100 µM (inactive) each time. Further, the GI50 in assay [6] and in [9] was > 100 µM (inactive) throughout.
Consider `CC(=O)NNc1nc(C)c(C(=O)/C=C/c2ccc(Cl)cc2)s1`, for which the GI50 in assay [1], in [2], in assay [3], in [7], in assay [8] and in assay [6] was > 100 µM (inactive) in each case.
For the compound `O=c1c2cc(Br)cc(Br)c2[nH]c(=S)n1-c1ccccc1`, the GI50 in assay [1] was > 100 µM (inactive); in assay [2], 56.2 µM (inactive); in [3] it was > 100 µM (inactive); in assay [7], 35.3 µM (inactive); in assay [8], > 100 µM (inactive); in [5] it was > 100 µM (inactive). For the same compound, the results for the GI50 in assay [6] and in assay [9] were > 100 µM (inactive) and 21.4 µM (inactive), respectively.
Turning to `[O-][n+]1c2cc(CN3CCOCC3)c(CN3CCOCC3)cc2[n+]([O-])c2c(O)cccc21`, the GI50 in assay [1] was 2.12 µM (inactive); in [3] it was 3.44 µM (inactive); in [7] it was 3.55 µM (inactive); in assay [4], 3.1 µM (inactive); in assay [8], 2.9 µM (inactive); in assay [5], 16.1 µM (inactive). For the same compound, the values for the GI50 in assay [6] and in assay [9] were 3.18 µM (inactive) and 1.83 µM (inactive), respectively.
With `O=C(/C=C/c1ccc(OCCCOc2ccc(/C=C/C(=O)c3ccccc3)cc2)cc1)c1ccccc1`, the GI50 in [1] is > 100 µM (inactive); in assay [2], > 100 µM (inactive); in [3], > 100 µM (inactive); in assay [4], > 100 µM (inactive); in [8], > 100 µM (inactive); in [5], 51.2 µM (inactive).
With `CCOC(=O)NC(=O)c1cn(CCCO)c(=O)[nH]c1=O`, the GI50 in [1], in assay [2], in assay [3], in assay [7], in [8] and in [5] was > 100 µM (inactive) throughout. Moreover, the GI50 in assay [6] and in assay [9] was > 100 µM (inactive) throughout.
